Results on two compounds are retold here after US20240335394A1 (Ludwig Institute for Cancer Research Ltd, priority 2021, published 2024).

Molecules are shown by their SMILES.

One data set relates to MC38 cells. As to the kind of experiment: MC38 rechallenge of mice that cleared tumors. The settings on record: 6 mice cleared by methanol plus anti-PD1, reinoculated with 5×10^5 MC38 cells on opposite flank, untreated, observed three weeks. It is filed as in vivo. From the text:
The rechallenged mice were monitored twice weekly for tumor growth for three weeks. Fifteen age-matched, tumor-naïve control mice were simultaneously inoculated as a control. The mice were not treated during the observation interval.

The conditions of data set [1]: humans; cited from earlier work.
The test system of a further data set is syngeneic MC38 tumors. As to the kind of experiment: MC38 study: anti-PD1 antibody alone or with methanol or sodium formate, tumor volume and survival. It is filed as in vivo, C57BL/6 mice. How it is done: Tumor volumes were measured by caliper twice weekly.
For data set [2] the following is noted: primates; cited from earlier work.
For data set [3] the following is noted: in vivo; cited from earlier work.
A further data set deals with 1C-starved T-cells. The settings on record: formate supplementation; cited from earlier work.
Data set [4] can be described thus: Body weight in the MC38 study. The settings on record: methanol 2 g/kg daily oral gavage or sodium formate 0.5% w/v in drinking water, with anti-PD1.
Procedure: Female C57BL/6 mice (10 per group) were inoculated subcutaneously with 5×10^5 MC38 syngeneic mouse tumor cells. […] Tumor volumes were measured by caliper twice weekly.

Regarding `CO` [methanol], the “tumor development after rechallenge” value with MC38 cells is “did not develop tumors”. In addition, the lethal dose in data set [1] is 300 to 1000 mg/kg. In addition, the “response to anti-PD1 therapy” value with syngeneic MC38 tumors (methanol 2 g/kg daily oral gavage plus anti-PD1 antibody 5 mg/kg ip twice weekly, compared to vehicle or sodium formate) is listed as “improved response to anti-PD1 therapy”. In the data set on syngeneic MC38 tumors (mouse model of cancer), the “synergy with immunotherapy in a mouse model of cancer” value was “synergize with immunotherapy”.
For `O=C[O-].[Na+]` [sodium formate], the “formate levels at which symptomatic toxicity is observed” value in data set [2] is “greater than 8 mM”. In addition, the elimination result in data set [3] is “too rapidly eliminated to dose directly”. Further, the T-cell activity entry in the data set on 1C-starved T-cells is listed as “rescues T-cell activity”. In addition, the “effects on body weight” value in data set [4] is given as “No effects on body weight”.
